In ChEMBL document CHEMBL2440076, “New triarylpyrazoles as broad-spectrum anticancer agents: design, synthesis, and biological evaluation” (Eur J Med Chem, 2013):

Legend:
Type in all cases: functional
[1] = system: OVCAR-4; experiment: Growth inhibition of human OVCAR4 cells assessed as cell growth at 5X10'-7 M after 48 hrs by sulforhodamine B assay; details: OVCAR-4, 48 h, read-out: Activity
[2] = system: IGROV-1; experiment: Growth inhibition of human IGROV1 cells assessed as cell growth at 5X10'-5 M after 48 hrs by sulforhodamine B assay; details: IGROV-1, 48 h, read-out: Activity
[3] = system: CAKI-1; experiment: Growth inhibition of human CAKI-1 cells assessed as cell growth at 5X10'-7 M after 48 hrs by sulforhodamine B assay; details: CAKI-1, 48 h, read-out: Activity
[4] = system: SF-268; experiment: Growth inhibition of human SF268 cells assessed as cell growth at 5X10'-6 M after 48 hrs by sulforhodamine B assay; details: SF-268, 48 h, read-out: Activity
[5] = system: BT-549; experiment: Growth inhibition of human BT549 cells assessed as cell growth at 5X10'-5 M after 48 hrs by sulforhodamine B assay; details: BT-549, 48 h, read-out: Activity
[6] = system: SNB-75; experiment: Growth inhibition of human SNB75 cells assessed as cell growth at 5X10'-6 M after 48 hrs by sulforhodamine B assay; details: SNB-75, 48 h, read-out: Activity
[7] = system: MCF7; experiment: Growth inhibition of human MCF7 cells assessed as cell growth at 5X10'-8 M after 48 hrs by sulforhodamine B assay; details: MCF7, 48 h, read-out: Activity
[8] = system: OVCAR-5; experiment: Growth inhibition of human OVCAR5 cells assessed as cell growth at 5X10'-8 M after 48 hrs by sulforhodamine B assay; details: OVCAR-5, 48 h, read-out: Activity
[9] = system: MDA-MB-435; experiment: Growth inhibition of human MDA-MB-435 cells assessed as cell growth at 3X10'-6 M after 48 hrs by sulforhodamine B assay; details: MDA-MB-435, 48 h, read-out: Activity
[10] = system: K562; experiment: Growth inhibition of human K562 cells assessed as cell growth at 3X10'-9 M after 48 hrs by sulforhodamine B assay; details: K562, 48 h, read-out: Activity
[11] = system: U-251; experiment: Growth inhibition of human U251 cells assessed as cell growth at 3X10'-7 M after 48 hrs by sulforhodamine B assay; details: U-251, 48 h, read-out: Activity
[12] = system: CAKI-1; experiment: Growth inhibition of human CAKI-1 cells assessed as cell growth at 3X10'-9 M after 48 hrs by sulforhodamine B assay; details: CAKI-1, 48 h, read-out: Activity
[13] = system: BT-549; experiment: Growth inhibition of human BT549 cells assessed as cell growth at 3X10'-7 M after 48 hrs by sulforhodamine B assay; details: BT-549, 48 h, read-out: Activity
[14] = system: CCRF-CEM; experiment: Growth inhibition of human CCRF-CEM cells assessed as cell growth at 3X10'-8 M after 48 hrs by sulforhodamine B assay; details: read-out: Activity
[15] = system: HT-29; experiment: Growth inhibition of human HT-29 cells assessed as cell growth at 3X10'-8 M after 48 hrs by sulforhodamine B assay; details: HT-29, 48 h, read-out: Activity
[16] = system: A498; experiment: Growth inhibition of human A498 cells assessed as cell growth at 3X10'-7 M after 48 hrs by sulforhodamine B assay; details: A498, 48 h, read-out: Activity
[17] = system: HCT-116; experiment: Growth inhibition of human HCT116 cells assessed as cell growth at 3X10'-7 M after 48 hrs by sulforhodamine B assay; details: HCT-116, 48 h, read-out: Activity
[18] = system: OVCAR-3; experiment: Growth inhibition of human OVCAR3 cells assessed as cell growth at 3X10'-5 M after 48 hrs by sulforhodamine B assay; details: OVCAR-3, 48 h, read-out: Activity
[19] = system: NCI-H226; experiment: Growth inhibition of human NCI-H226 cells assessed as cell growth at 3X10'-7 M after 48 hrs by sulforhodamine B assay; details: NCI-H226, 48 h, read-out: Activity
[20] = system: SF-539; experiment: Growth inhibition of human SF539 cells assessed as cell growth at 3X10'-5 M after 48 hrs by sulforhodamine B assay; details: SF-539, 48 h, read-out: Activity
[21] = system: NCI-H226; experiment: Growth inhibition of human NCI-H226 cells assessed as cell growth at 3X10'-5 M after 48 hrs by sulforhodamine B assay; details: NCI-H226, 48 h, read-out: Activity
[22] = system: NCI-H23; experiment: Growth inhibition of human NCI-H23 cells assessed as cell growth at 3X10'-8 M after 48 hrs by sulforhodamine B assay; details: NCI-H23, 48 h, read-out: Activity
[23] = system: UACC-62; experiment: Growth inhibition of human UACC62 cells assessed as cell growth at 3X10'-7 M after 48 hrs by sulforhodamine B assay; details: UACC-62, 48 h, read-out: Activity
[24] = system: HL-60(TB); experiment: Growth inhibition of human HL-60(TB) cells assessed as cell growth at 3X10'-5 M after 48 hrs by sulforhodamine B assay; details: HL-60, 48 h, read-out: Activity
[25] = system: NCI-H460; experiment: Growth inhibition of human NCI-H460 cells assessed as cell growth at 3X10'-5 M after 48 hrs by sulforhodamine B assay; details: NCI-H460, 48 h, read-out: Activity
[26] = system: U-251; experiment: Growth inhibition of human U251 cells assessed as cell growth at 3X10'-5 M after 48 hrs by sulforhodamine B assay; details: U-251, 48 h, read-out: Activity
[27] = system: Malme-3M; experiment: Growth inhibition of human MALME-3M cells assessed as cell growth at 3X10'-6 M after 48 hrs by sulforhodamine B assay; details: read-out: Activity
[28] = system: NCI-H322M; experiment: Growth inhibition of human NCI-H322M cells assessed as cell growth at 3X10'-9 M after 48 hrs by sulforhodamine B assay; details: read-out: Activity
[29] = system: COLO 205; experiment: Growth inhibition of human COLO205 cells assessed as cell growth at 3X10'-9 M after 48 hrs by sulforhodamine B assay; details: COLO 205, 48 h, read-out: Activity
[30] = Growth inhibition of human HCC2998 cells assessed as cell growth at 3X10'-7 M after 48 hrs by sulforhodamine B assay; details: HCC 2998, 48 h, read-out: Activity
[31] = system: MDA-MB-231; experiment: Growth inhibition of human MDA-MB-231 cells assessed as cell growth at 3X10'-9 M after 48 hrs by sulforhodamine B assay; details: MDA-MB-231, 48 h, read-out: Activity
[32] = system: HCT-15; experiment: Growth inhibition of human HCT15 cells assessed as cell growth at 3X10'-6 M after 48 hrs by sulforhodamine B assay; details: HCT-15, 48 h, read-out: Activity
[33] = system: UACC-257; experiment: Growth inhibition of human UACC257 cells assessed as cell growth at 3X10'-7 M after 48 hrs by sulforhodamine B assay; details: UACC-257, 48 h, read-out: Activity
[34] = Growth inhibition of human HCC2998 cells assessed as cell growth at 3X10'-8 M after 48 hrs by sulforhodamine B assay; details: HCC 2998, 48 h, read-out: Activity
[35] = system: COLO 205; experiment: Growth inhibition of human COLO205 cells assessed as cell growth at 3X10'-6 M after 48 hrs by sulforhodamine B assay; details: COLO 205, 48 h, read-out: Activity
[36] = system: K562; experiment: Growth inhibition of human K562 cells assessed as cell growth at 3X10'-6 M after 48 hrs by sulforhodamine B assay; details: K562, 48 h, read-out: Activity

`O=C(Nc1cccc(-n2cc(-c3ccncc3)c(-c3ccc(Cl)c(O)c3)n2)c1)Nc1cc(C(F)(F)F)cc(C(F)(F)F)c1` showed a growth at 0.5 µM [1] of 65%, a growth at 50 µM [2] of -55% and a growth at 0.5 µM [3] of 74%. For the same compound, the growth at 5 µM [4] was -27%, the growth at 50 µM [5] was -90% and the growth at 5 µM [6] was -46%. It also gave a growth at 0.05 µM [7] of 85% and a growth at 0.05 µM [8] of 89%.

`COc1cc(-c2nn(-c3cccc(NC(=O)Nc4ccc(Cl)c(Cl)c4)c3)cc2-c2ccncc2)ccc1Cl` gave a growth at 0.5 µM [1] of 81%, a growth at 50 µM [2] of -26% and a growth at 0.5 µM [3] of 84%. For the same compound, the growth at 5 µM [4] was 8%, the growth at 50 µM [5] was -3% and the growth at 0.05 µM [7] was 92%. For the same compound, the growth at 0.05 µM [8] was 90%.

`COc1cc(-c2nn(-c3cccc(NC(=O)Nc4cc(C(F)(F)F)cc(C(F)(F)F)c4)c3)cc2-c2ccncc2)ccc1Cl` showed a growth at 0.5 µM [1] of 73%, a growth at 50 µM [2] of -54% and a growth at 0.5 µM [3] of 80%. The growth at 5 µM [4] was -40%, the growth at 50 µM [5] was -57% and the growth at 5 µM [6] was -50%. For the same compound, the growth at 0.05 µM [7] was 91% and the growth at 0.05 µM [8] was 87%.

With `COc1cc(-c2nn(-c3cccc(NC(=O)c4ccc(Cl)c(C(F)(F)F)c4)c3)cc2-c2ccncc2)ccc1Cl` the growth at 3 µM [9] was -32%, the growth at 0.003 µM [10] was 99% and the growth at 0.3 µM [11] was 91%. For the same compound, the growth at 0.003 µM [12] was 93%, the growth at 0.3 µM [13] was 95% and the growth at 0.03 µM [14] was 102%. It also gave a growth at 0.03 µM [15] of 99%, a growth at 0.3 µM [16] of 82% and a growth at 0.3 µM [17] of 100%. The growth at 30 µM [18] was -12%, the growth at 0.3 µM [19] was 84% and the growth at 30 µM [20] was -15%. For the same compound, the growth at 30 µM [21] was 23%, the growth at 0.03 µM [22] was 92% and the growth at 0.3 µM [23] was 92%. It also gave a growth at 30 µM [24] of 23%, a growth at 30 µM [25] of 7% and a growth at 30 µM [26] of 15%. The growth at 3 µM [27] was 20%, the growth at 0.003 µM [28] was 91% and the growth at 0.003 µM [29] was 101%. The growth at 0.3 µM [30] was 101%, the growth at 0.003 µM [31] was 99% and the growth at 3 µM [32] was 50%. For the same compound, the growth at 0.3 µM [33] was 90%, the growth at 0.03 µM [34] was 95% and the growth at 3 µM [35] was 74%. The growth at 3 µM [36] was 22%.
